For one assay, the target named is hNAMPT protein (Homo sapiens (Human), UniProt P43490). Description: NAMPT enzyme assay (TR-FRET/HTRF, BodiPY ligand, anti 6His-Tb). It counts as binding. The settings on record: for inhibition at 1 µM: NAMPT inhibition at compound concentration 1 μM, read-out: Percent Inhibition; for IC50: NAMPT inhibition, IC50 range class, read-out: IC50. The gist of the method: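 Compound or DMSO was incubated for 1 h at room temperature, protected from light, with BodiPY ligand and hNAMPT labelled by terbium anti-6His antibody. The 520 nm to 486 nm emission ratio after 320 nm excitation gave inhibition versus vehicle, from which concentration-response curves yielded IC50.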
Chain of hNAMPT protein (P43490 whole entry): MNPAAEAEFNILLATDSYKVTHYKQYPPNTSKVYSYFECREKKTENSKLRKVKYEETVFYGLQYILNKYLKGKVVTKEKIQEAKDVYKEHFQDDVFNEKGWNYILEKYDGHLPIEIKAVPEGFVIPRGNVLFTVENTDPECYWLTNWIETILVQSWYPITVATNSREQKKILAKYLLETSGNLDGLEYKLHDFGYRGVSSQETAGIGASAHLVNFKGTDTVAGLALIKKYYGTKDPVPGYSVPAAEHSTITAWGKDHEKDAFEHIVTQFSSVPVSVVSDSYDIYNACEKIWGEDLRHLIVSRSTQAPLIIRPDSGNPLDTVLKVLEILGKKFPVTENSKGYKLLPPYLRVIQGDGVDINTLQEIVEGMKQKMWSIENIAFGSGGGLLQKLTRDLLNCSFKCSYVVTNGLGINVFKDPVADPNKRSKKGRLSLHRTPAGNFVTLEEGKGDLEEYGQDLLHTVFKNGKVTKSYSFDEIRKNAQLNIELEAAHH
(Time-resolved FRET reads energy transfer from a long-lived donor to a nearby acceptor.)

For the next assay, the system named is PC3 cells. Kind of assay: PC3 growth inhibition (Cell-titer glo, 72 hours). The settings on record: Homo sapiens, PC-3; compound concentration 1.667 μM; PC3 cells, 72 hours, Cell-titer glo; read-out: Percent Inhibition (PC3 growth inhibition). It counts as cell-based. The essentials: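 Compounds in AIM serum-free medium were applied for 72 h at 37 °C, 5% CO2 to PC3 cells plated overnight from RPMI1640 culture. Luminescence after 10 min CellTiter-Glo, normalised to DMSO, gave % viability at 1 μM or 1.667 μM, or GI50/LD50.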

For `Cc1ccc(C#N)cc1-c1nc2cc(C(=O)NCCCc3ncc[nH]3)ccc2nc1-c1ccc(F)cc1` [Compound I-472, 3-(5-cyano-2-methylphenyl)-2-(4-fluorophenyl)-N-[3-(1H-imidazol-2-yl)propyl]quinoxaline-6-carboxamide], at hNAMPT protein, the inhibition at 1 µM stood at 98% and the IC50 was < 100 nM. Further, in the assay with PC3 cells, the inhibition at 1.667 µM came to 2%.
As to `Cc1ccc(-c2nc3cc(C(=O)NCCCc4ncc[nH]4)ccc3nc2-c2ccc(F)cc2)s1` [Compound I-473, 2-(4-fluorophenyl)-N-[3-(1H-imidazol-2-yl)propyl]-3-(5-methyl-2-thienyl)quinoxaline-6-carboxamide], at hNAMPT protein, the inhibition at 1 µM worked out at 85% and the IC50 was in the range of 100 to 500 nM. The inhibition at 1.667 µM in the assay on PC3 cells is 3%.
In the same order, the values of `O=C(NCCCc1ncc[nH]1)c1ccc2nc(-c3ccc(F)cc3)c(-c3ccc(F)c(F)c3)nc2c1` [Compound I-474, 3-(3,4-difluorophenyl)-2-(4-fluorophenyl)-N-[3-(1H-imidazol-2-yl)propyl]quinoxaline-6-carboxamide] are 95%, 100 to 500 nM and 3%.
On the same counts, the results for `Cc1nn(C)cc1-c1nc2cc(C(=O)NCCCc3ncc[nH]3)ccc2nc1-c1ccc(F)cc1` [Compound I-475, 3-(1,3-dimethyl-1H-pyrazol-4-yl)-2-(4-fluorophenyl)-N-[3-(1H-imidazol-2-yl)propyl]quinoxaline-6-carboxamide] are 77%, 100 to 500 nM and 3%.
In the case of `O=C(NCCCc1ncc[nH]1)c1ccc2nc(Cc3ccc(Cl)cc3)c(-c3ccc(F)cc3)nc2c1` [Compound I-476], on hNAMPT protein, the inhibition at 1 µM amounted to 88% and the IC50 is 100 to 500 nM. Moreover, the inhibition at 1.667 µM in the assay on PC3 cells came to 3%.
In the same order, the values of `O=C(NCCCc1ncc[nH]1)c1ccc2nc(-c3ccccc3)c(-c3cccs3)nc2c1` [Compound I-477, N-[3-(1H-imidazol-2-yl)propyl]-2-phenyl-3-(2-thienyl)quinoxaline-6-carboxamide] are > 99%, < 100 nM and 2%.
In the same order, the values of `CC(C)COc1nc2ccc(C(=O)NCCCc3ncc[nH]3)cc2nc1-c1ccc(F)cc1` [Compound I-478, 3-(4-fluorophenyl)-N-[3-(1H-imidazol-2-yl)propyl]-2-isobutoxyquinoxaline-6-carboxamide] are 96%, < 100 nM and 2%.
In the same order, the values of `Nc1ccc(-c2nc3cc(C(=O)NCCCc4ncc[nH]4)ccc3nc2-c2ccc(F)cc2)cc1` [Compound I-479, 3-(4-aminophenyl)-2-(4-fluorophenyl)-N-[3-(1H-imidazol-2-yl)propyl]quinoxaline-6-carboxamide] are 75%, 100 to 500 nM and 3%.
Turning to `O=C(NCCCc1ncc[nH]1)c1ccc2nc(-c3ccc(F)cc3)c(-c3cc(Cl)ccc3F)nc2c1` [Compound I-480, 3-(5-Chloro-2-fluoro-phenyl)-2-(4-fluorophenyl)-N-[3-(1H-imidazol-2-yl)propyl]quinoxaline-6-carboxamide], on hNAMPT protein, the inhibition at 1 µM is 100% and the 50% inhibitory concentration (IC50) was < 100 nM. Further, the inhibition at 1.667 µM in the assay on PC3 cells worked out at 1%.
As to `COc1ccc(F)c(-c2nc3cc(C(=O)NCCCc4ncc[nH]4)ccc3nc2-c2ccc(F)cc2)c1` [Compound I-481, 3-(2-fluoro-5-methoxyphenyl)-2-(4-fluorophenyl)-N-[3-(1H-imidazol-2-yl)propyl]quinoxaline-6-carboxamide], on hNAMPT protein, the inhibition at 1 µM turned out to be 98% and the half-maximal inhibitory concentration (IC50) was < 100 nM. In the assay with PC3 cells, the inhibition at 1.667 µM was 2%.
On to `CC(C)Oc1nc2ccc(C(=O)NCCCc3c[nH]cn3)cc2nc1-c1ccc(F)cc1` [Compound I-482, 3-(4-Fluorophenyl)-N-[3-(1H-imidazol-4-yl)propyl]-2-isopropoxyquinoxaline-6-carboxamide], for which, at hNAMPT protein, the inhibition at 1 µM turned out to be 72% and the 50% inhibitory concentration (IC50) is 100 to 500 nM. Also, the inhibition at 1.667 µM with PC3 cells is 2%.

As a reminder, the inhibition is how much of the control response was suppressed. In general, IC50 refers to the point on the concentration scale where inhibition reaches its midpoint.

For the origin of these results see US10144742B2 (Millennium Pharmaceuticals, Inc., priority 2014, dated 2018).
